Assay results reported in US20170239249A1, “QUINAZOLINE-BASED KINASE INHIBITORS” (Bristol-Myers Squibb Company, priority 2014, published 2017).

Target: AAK1 (full length human) (Homo sapiens, UniProt Q2M2I8)
Assay: HEK281 Cell-Based Assay (phospho-mu2 Western blot in HEK293F cells transfected with AAK1 and AP2M1)
Settings: IC50 (nM), functional potency; inhibition of mu2 phosphorylation in HEK293F cells, 3 hours incubation, 5 concentrations

Chain of AAK1 (full length human) (Q2M2I8 1-863 isoform Q2M2I8-2): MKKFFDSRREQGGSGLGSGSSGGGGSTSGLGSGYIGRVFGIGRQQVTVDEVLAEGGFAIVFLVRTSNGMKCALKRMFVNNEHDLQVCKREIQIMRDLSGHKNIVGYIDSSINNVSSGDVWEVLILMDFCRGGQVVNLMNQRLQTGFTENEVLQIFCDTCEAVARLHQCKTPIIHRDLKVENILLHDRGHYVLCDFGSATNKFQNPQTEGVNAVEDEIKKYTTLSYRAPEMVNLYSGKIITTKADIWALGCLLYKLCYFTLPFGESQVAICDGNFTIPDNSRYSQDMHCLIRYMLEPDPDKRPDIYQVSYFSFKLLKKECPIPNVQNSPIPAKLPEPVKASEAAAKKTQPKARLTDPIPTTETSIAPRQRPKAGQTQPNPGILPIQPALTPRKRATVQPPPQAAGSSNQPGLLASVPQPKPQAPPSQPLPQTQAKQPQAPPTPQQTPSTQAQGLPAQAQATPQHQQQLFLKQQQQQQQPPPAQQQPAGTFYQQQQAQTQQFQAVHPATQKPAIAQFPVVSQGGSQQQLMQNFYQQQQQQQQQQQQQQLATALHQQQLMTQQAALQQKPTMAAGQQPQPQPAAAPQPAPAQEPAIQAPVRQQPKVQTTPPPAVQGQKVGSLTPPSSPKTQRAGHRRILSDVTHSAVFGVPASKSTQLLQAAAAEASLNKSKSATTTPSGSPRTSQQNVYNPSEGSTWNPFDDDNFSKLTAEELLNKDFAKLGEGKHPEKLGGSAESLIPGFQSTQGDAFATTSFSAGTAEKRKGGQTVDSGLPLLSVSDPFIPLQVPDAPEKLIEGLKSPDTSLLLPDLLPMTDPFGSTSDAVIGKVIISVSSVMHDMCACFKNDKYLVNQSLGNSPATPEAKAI

IC50 [nM]	SMILES
28	CCc1nc(C(N)CC(C)C)nc2ccc(-c3cn[nH]c3)cc12 (stereo not shown) [Example 63, 1-(4-Ethyl-6-(1H-pyrazol-4-yl)quinazolin-2-yl)-3-methylbutan-1-amine]
83	CCc1nc(C(N)CC(C)C)nc2ccc(-c3ccncn3)cc12 (stereo not shown) [Example 64, 1-(4-Ethyl-6-(pyrimidin-4-yl)quinazolin-2-yl)-3-methylbutan-1-amine]
223	CCc1nc(C(C)CC(C)C)nc2ccc(-c3ccncc3)cc12 (stereo not shown) [Example 65, 4-Ethyl-2-(4-methylpentan-2-yl)-6-(pyridin-4-yl)quinazoline]
258	CCc1nc(C(C)CC(C)C)nc2ccc(-c3ccnc(NC(C)=O)c3)cc12 (stereo not shown) [Example 66, N-(4-(4-Ethyl-2-(4-methylpentan-2-yl)quinazolin-6-yl)pyridin-2-yl)acetamide]
1500	CCc1nc(C(C)CC(C)C)nc2ccc(-c3ccnc(NC)c3)cc12 (stereo not shown) [Example 67, 4-(4-Ethyl-2-(4-methylpentan-2-yl)quinazolin-6-yl)-N-methylpyridin-2-amine]
144	CCc1nc(C(CN)CC(C)C)nc2ccc(-c3ccncc3)cc12 (stereo not shown) [Example 68, 2-(4-Ethyl-6-(pyridin-4-yl)quinazolin-2-yl)-4-methylpentan-1-amine]
32	CCc1nc(C(N)CCC(F)(F)F)nc2ccc(-c3ccncc3)cc12 (stereo not shown) [Example 69, 1-(4-Ethyl-6-(pyridin-4-yl)quinazolin-2-yl)-4,4,4-trifluorobutan-1-amine]
126	CCc1nc([C@H](N)CC2CC2)nc2ccc(-c3ccncc3)cc12 [Example 70, (R)-2-Cyclopropyl-1-(4-ethyl-6-(pyridin-4-yl)quinazolin-2-yl)ethanamine]
32	CCc1nc([C@H](N)C2CCCC2)nc2ccc(-c3ccncc3)cc12 [Example 71, (R)-Cyclopentyl(4-ethyl-6-(pyridin-4-yl)quinazolin-2-yl)methanamine]
13	CCc1nc([C@H](N)C2CCCCC2)nc2ccc(-c3ccncc3)cc12 [Example 72, (R)-Cyclohexyl(4-ethyl-6-(pyridin-4-yl)quinazolin-2-yl)methanamine]
44	CC(C)CC(N)c1nc(N2CCC2)c2cc(-c3ccncc3)ccc2n1 (stereo not shown) [Example 73, 1-(4-(Azetidin-1-yl)-6-(pyridin-4-yl)quinazolin-2-yl)-3-methylbutan-1-amine]
590	COc1cc2nc(CCC(C)C)nc(C)c2cc1-c1cnco1 [Example 75, 5-(2-Isopentyl-7-methoxy-4-methylquinazolin-6-yl)oxazole]
1810	CC(C)CCc1nc(NCCO)c2cc(-c3cnco3)ccc2n1 [Example 76, 2-((2-Isopentyl-6-(oxazol-5-yl)quinazolin-4-yl)amino)ethanol]
3460	COCCNc1nc(CCC(C)C)nc2ccc(-c3cnco3)cc12 [Example 77, 2-Isopentyl-N-(2-methoxyethyl)-6-(oxazol-5-yl)quinazolin-4-amine]
1090	CC(C)CCc1nc(NCCN2CCCC2)c2cc(-c3cnco3)ccc2n1 [Example 78, 2-Isopentyl-6-(oxazol-5-yl)-N-(2-(pyrrolidin-1-yl)ethyl)quinazolin-4-amine]
6600	Cc1cnc(CNc2nc(CCC(C)C)nc3ccc(-c4cnco4)cc23)cn1 [Example 79]
3320	CC(C)CCc1nc(NCCCN(C)C)c2cc(-c3cnco3)ccc2n1 [Example 80, N^1-(2-Isopentyl-6-(oxazol-5-yl)quinazolin-4-yl)-N^3,N^3-dimethylpropane-1,3-diamine]
8610	CC(C)CCc1nc(NCCN(C)C)c2cc(-c3cnco3)ccc2n1 [Example 81, N^1-(2-Isopentyl-6-(oxazol-5-yl)quinazolin-4-yl)-N^2,N^2-dimethylethane-1,2-diamine]
4620	COC(=O)CCNc1nc(CCC(C)C)nc2ccc(-c3cnco3)cc12 [Example 82, Methyl 3-((2-isopentyl-6-(oxazol-5-yl)quinazolin-4-yl)amino)propanoate]
812	CC(C)CCc1nc(N2CCC2)c2cc(-c3cnco3)ccc2n1 [Example 83, 5-(4-(Azetidin-1-yl)-2-isopentylquinazolin-6-yl)oxazole]
2580	CC(C)CCc1nc(NC2CC2)c2cc(-c3cnco3)ccc2n1 [Example 84, N-Cyclopropyl-2-isopentyl-6-(oxazol-5-yl)quinazolin-4-amine]
24	CCc1nc(C(N)CC(C)C)nc2cc(OC)c(-c3cnco3)cc12 (stereo not shown) [Example 85, 1-(4-Ethyl-7-methoxy-6-(oxazol-5-yl)quinazolin-2-yl)-3-methylbutan-1-amine]
932	CCc1nc(C(N)CC(C)C)nc2cc(OC)c(-c3ccncc3)cc12 (stereo not shown) [Example 88, 1-(4-Ethyl-7-methoxy-6-(pyridin-4-yl)quinazolin-2-yl)-3-methylbutan-1-amine]

More lines, now with the values behind:

SMILES	IC50 [nM]
CC(C)CCc1nc(C2CC2)c2cc(-c3ccncc3)ccc2n1 [Example 47, 4-Cyclopropyl-2-isopentyl-6-(pyridin-4-yl)quinazoline]	1340
CC(C)CCc1nc(NCCN(C)C)c2cc(-c3ccncc3)ccc2n1 [Example 48, N-(2-Isopentyl-6-(pyridin-4-yl)quinazolin-4-yl)-N^2,N^2-dimethylethane-1,2-diamine]	1190
CC(C)CCc1nc2ccc(-c3ccncc3)cc2c(=O)[nH]1 [Example 49, 2-Isopentyl-6-(pyridin-4-yl)quinazolin-4(3H)-one]	54
CC(C)CCc1nc(NCCO)c2cc(-c3ccncc3)ccc2n1 [Example 50, 2-(2-Isopentyl-6-(pyridin-4-yl)quinazolin-4-ylamino)ethanol]	301
CC(C)CCc1nc2ccc(-c3cn[nH]c3)cc2c(=O)[nH]1 [Example 51, 2-Isopentyl-6-(1H-pyrazol-4-yl)quinazolin-4(3H)-one]	22
CCc1nc(CCC(C)C)nc2cc(OC)c(-c3cnco3)cc12 [Example 52, 5-(4-Ethyl-2-isopentyl-7-methoxyquinazolin-6-yl)oxazole]	1270
CC(C)CCc1nc(C(N)=O)c2cc(-c3ccncc3)ccc2n1 [Example 53, 2-Isopentyl-6-(pyridin-4-yl)quinazoline-4-carboxamide]	354
CCOc1cc2nc(CCC(C)C)nc(CC)c2cc1-c1cnco1 [Example 54, 5-(7-Ethoxy-4-ethyl-2-isopentylquinazolin-6-yl) oxazole]	2590
COc1nc(C(N)CC(C)C)nc2ccc(-c3ccncc3)cc12 (stereo not shown) [Example 55, 1-(4-Methoxy-6-(pyridin-4-yl)quinazolin-2-yl)-3-methylbutan-1-amine]	97
CC(C)CCc1nc2ccc(-c3cnco3)cc2c(=S)[nH]1 [Example 56, 2-Isopentyl-6-(oxazol-5-yl)quinazoline-4(3H)-thione]	5
CCc1nc(CCC(C)C)nc2ccc(-c3cnco3)cc12 [Example 57, 5-(4-Ethyl-2-isopentylquinazolin-6-yl)oxazole]	1860
COc1cc2nc(CCC(C)C)[nH]c(=O)c2cc1-c1cnco1 [Example 58, 2-Isopentyl-7-methoxy-6-(oxazol-5-yl)quinazolin-4(3H)-one]	20
CC(C)CCc1nc(C(=O)N(C)C)c2cc(-c3ccncc3)ccc2n1 [Example 59, 2-Isopentyl-N,N-dimethyl-6-(pyridin-4-yl)quinazoline-4-carboxamide]	2670
CC(C)CCc1nc(C#N)c2cc(-c3ccncc3)ccc2n1 [Example 60, 2-Isopentyl-6-(pyridin-4-yl)quinazoline-4-carbonitrile]	144
CC(C)CCC1=Nc2ccc(-c3ccncc3)cc2C(CO)N1 (stereo not shown) [Example 61, (2-Isopentyl-6-(pyridin-4-yl)-3,4-dihydroquinazolin-4-yl)methanol]	35
CCc1nc(C(N)CC(C)C)nc2ccc(-c3ccncc3)cc12 (stereo not shown) [Example 62, 1-(4-Ethyl-6-(pyridin-4-yl)quinazolin-2-yl)-3-methylbutan-1-amine]	37
CC(C)CC(N)c1nc(N2CC2)c2cc(-c3ccncc3)ccc2n1 (stereo not shown) [Example 74, 1-(4-(Aziridin-1-yl)-6-(pyridin-4-yl)quinazolin-2-yl)-3-methylbutan-1-amine]	263
